The source made the active and inactive calls. No rule for the calls is given here.
The compounds below were run against Ubiquitin carboxyl-terminal hydrolase isozyme L1 (Homo sapiens) (UniProt P09936) (assay: biochemical concentration-response of UCH-L1 DUB inhibitors, hit verification (AID 1645867)). Settings: recombinant UCHL1 deubiquitinase activity assay.
Sequence of Ubiquitin carboxyl-terminal hydrolase isozyme L1 (Homo sapiens) (P09936 whole entry, looked up): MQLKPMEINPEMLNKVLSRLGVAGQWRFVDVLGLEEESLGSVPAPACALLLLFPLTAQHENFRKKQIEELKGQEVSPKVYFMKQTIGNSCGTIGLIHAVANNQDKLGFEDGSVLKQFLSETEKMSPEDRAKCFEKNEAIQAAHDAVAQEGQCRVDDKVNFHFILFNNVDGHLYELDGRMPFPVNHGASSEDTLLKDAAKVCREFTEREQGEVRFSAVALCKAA
In the case of `O=c1[nH]c(=O)n(Cc2ccccc2)c2c1CN(CCc1ccccc1)CN2`, the IC50 is reported as > 25 µM (inactive). `COc1ccc(-c2cc3nc([C@H](C)NC(=O)COc4ccccc4F)nn3cn2)cc1` was tested, and the IC50 was > 25 µM (inactive). `Cc1oncc1C(=O)N1CC[C@H]2CO[C@H](CN3CCOCC3)[C@H]2C1` was tested, and the IC50 was > 25 µM (inactive). For `Cc1ccccc1NC(=O)Nc1ccccc1OCc1cc(=O)n2cccc(C)c2n1`, the IC50 was > 25 µM (inactive). `O=C(COc1ccc(Cl)cc1Cl)Nc1ccc2[nH]c(=O)[nH]c2c1` was tested, and the IC50 was > 25 µM (inactive). With `O=C1c2ccccc2C(=O)c2c(O)c(O)cc(O)c21` the IC50 was 1.97 µM. With `Cc1nc(C2(NC(=O)Nc3ccc(F)cc3F)CCCC2)no1` the IC50 was > 25 µM (inactive). For `O=C1NC2(CCCc3ccccc32)C(=O)N1Cc1csc(-c2ccccc2)n1` (configuration not stated), the IC50 was > 25 µM (inactive). `CCC1OC(O)(C(C)C(O)C(C)C2OC(=O)/C(C)=C/C(C)=CC(C)C(O)C(C)C/C(C)=C/C=C/C2OC)CC(OC(=O)/C=C/C(=O)NC2=C(O)CCC2=O)C1C` (configuration not stated) was tested, and the IC50 was > 25 µM (inactive). In the case of `COc1c(C(=O)Nc2nnc(C3CC3)s2)csc1Cl`, the IC50 is reported as > 25 µM (inactive). In the case of `CCOc1ccc(-n2ccnc(SCC(=O)Nc3ccccc3F)c2=O)cc1`, the IC50 is reported as > 25 µM (inactive). With `O=C(NC1(O)C(=O)c2ccccc2C1=O)c1cccc2c1-c1ccccc1C2=O` the IC50 was 15.6 µM. For `Cc1ccc2c(c1)c(=O)c(C(=O)c1ccccc1)cn2CC(=O)Nc1ccccc1`, the IC50 was > 25 µM (inactive). For `Cn1c(=O)c2c3c(cnc2n(C)c1=O)C(=O)CC(c1ccccc1)C3` (configuration not stated), the IC50 was > 25 µM (inactive). With `COc1ccc(CC(=O)Nc2c(NCc3ccccc3)c3ccccc3oc2=O)cc1` the IC50 was > 25 µM (inactive). In the case of `COc1ccc(Cl)cc1NC(=O)c1cc(-c2ccccn2)n[nH]1`, the IC50 is reported as > 25 µM (inactive). In the case of `CC(=O)O[C@@H]1C(=O)C2=C(C(=O)C[C@H]3C(C)(C)C(=O)CC[C@]23C)[C@]2(C)C(=O)C[C@H]([C@H](C)CC(=O)C[C@@H](C)C(=O)O)[C@@]12C`, the IC50 is reported as > 25 µM (inactive). With `Cc1c(Cl)cccc1NC(=O)Cn1cc(C(=O)C2CC2)c2ccccc21` the IC50 was > 25 µM (inactive). In the case of `N=C1/C(=C/c2cn(Cc3ccccc3F)c3ccccc23)C(=O)N=C2SC(C(F)(F)F)=NN12`, the IC50 is reported as > 25 µM (inactive). For `CCN(CC)Cc1ccc(-c2nnc(-c3cnc4onc(C)c4c3)o2)o1`, the IC50 was > 25 µM (inactive). In the case of `C=C/C(C)=C/[C@@]1(C)SC(=O)C(C)=C1O`, the IC50 is reported as 5.87 µM. For `CC1=C(O)C(=O)C=C2C1=CC=C1[C@@]2(C)CC[C@@]2(C)[C@@H]3C[C@](C)(C(=O)O)CC[C@]3(C)CC[C@]12C`, the IC50 was > 25 µM (inactive). For `Cc1nc(C2COCCN2C(=O)c2cc(C(C)(C)C)[nH]n2)cc(=O)[nH]1` (configuration not stated), the IC50 was > 25 µM (inactive). `CC(C)(C)n1nc2c(c1NC(=O)Cc1ccccc1)CSC2` was tested, and the IC50 was > 25 µM (inactive). With `O=C(CSc1nnc(-c2cccnc2)n1-c1ccccc1)c1cccc([N+](=O)[O-])c1` the IC50 was > 25 µM (inactive). For `CC[C@@H](C(=O)[C@@H](C)[C@@H](O)[C@H](C)CCc1ccc(C)c(O)c1C(=O)O)[C@@H]1O[C@](CC)([C@H]2CC[C@](O)(CC)[C@H](C)O2)C[C@@H]1C`, the IC50 was > 25 µM (inactive). Compound `CC1O[C@@H](c2ccc3c(c2O)C(=O)C2=C(C3=O)[C@@]3(O)C(=O)C(O)[C@](C)(O)C[C@@]3(O)C=C2)CC[C@@H]1OC(=O)/C=C/C=C/C=C/[C@@H]1O[C@@](C)(C(=O)O)O[C@H]1C` (some centres not stated) has an IC50 of 4.57 µM. For `O=C(Nc1cccc(F)c1)N1C[C@@H]2c3nccn3-c3ccccc3[C@@H]2C1`, the IC50 was > 25 µM (inactive). With `O=C(Nc1ccc(Cl)c(Cl)c1)c1cccc(N2CCCCS2(=O)=O)c1` the IC50 was > 25 µM (inactive). With `CCc1ccc(NC(=O)C2CCN(c3nc4nc[nH]c(=O)c4s3)CC2)cc1` the IC50 was > 25 µM (inactive). For `CCN1C(=O)c2ccccc2C(=O)[C@@]2(C)CN(C(=O)c3ccccc3)C[C@@H]12`, the IC50 was > 25 µM (inactive). `CS(=O)(=O)n1nc(NCc2ccc(F)cc2)nc1NCc1ccc(F)cc1` was tested, and the IC50 was > 25 µM (inactive). In the case of `CCOC(=O)c1ccc(Oc2sccc2[N+](=O)[O-])cc1`, the IC50 is reported as > 25 µM (inactive). For `Cc1nn(-c2ccccc2)c(C)c1S(=O)(=O)N1CCN(c2ccccn2)CC1`, the IC50 was > 25 µM (inactive). For `O=C(COc1ccccc1)Nc1ccc(-c2nc3cnccc3o2)c(O)c1`, the IC50 was > 25 µM (inactive). `Cc1ccc(N2CC(c3nc4ccccc4n3CCOc3cccc(C)c3)CC2=O)cc1` (configuration not stated) was tested, and the IC50 was > 25 µM (inactive). `Cc1nn(-c2ccc(F)cc2)c(C)c1S(=O)(=O)N1CCN(c2ncccn2)CC1` was tested, and the IC50 was > 25 µM (inactive). In the case of `CCOc1ccc(-c2nnc(NC(=O)C3CCN(S(=O)(=O)c4ccc5c(c4)CCC5)CC3)o2)cc1`, the IC50 is reported as > 25 µM (inactive). In the case of `COc1ccc(C(=O)Nc2nnc(S(=O)(=O)N3CCCc4ccccc43)s2)cc1OC`, the IC50 is reported as > 25 µM (inactive). `CCc1cccc(CC)c1NC(=O)COC(=O)c1cc2cccc(OC)c2oc1=O` was tested, and the IC50 was > 25 µM (inactive). For `CC(C)C(=O)Nc1nc2cc(NS(=O)(=O)c3ccccc3)ccc2s1`, the IC50 was > 25 µM (inactive). In the case of `Cc1ccc2c(c1)c(=O)c(C(=O)c1ccccc1)cn2CC(=O)Nc1ccc2c(c1)OCO2`, the IC50 is reported as > 25 µM (inactive). `O=C(Cn1nnc2ccccc21)Nc1nc(-c2ccc3c(c2)CCN3C(=O)c2ccccc2F)cs1` was tested, and the IC50 was > 25 µM (inactive). With `COc1ccc(-c2noc(-c3nnn(CC(=O)Nc4ccc(OC)cc4OC)c3N)n2)cc1` the IC50 was > 25 µM (inactive). For `Nc1ccc(F)c(NS(=O)(=O)c2ccccc2)c1`, the IC50 was > 25 µM (inactive). For `COc1cccc(-n2cnc3cc(C(=O)NCCc4ccccc4)ccc3c2=O)c1`, the IC50 was > 25 µM (inactive). With `CCOc1ccc2c(c1)c(=O)c(C(=O)c1ccc(C)cc1)cn2CC(=O)Nc1ccc(C)cc1` the IC50 was > 25 µM (inactive). In the case of `N#Cc1cccc(NC(=O)Nc2cccn(Cc3ccccc3F)c2=O)c1`, the IC50 is reported as 17.1 µM. For `Cc1ccc(C(=O)N[C@@H](Cc2ccccc2)C(=O)N2CCC3(CC2)NCCc2[nH]cnc23)cc1C`, the IC50 was > 25 µM (inactive). With `O=c1c(-c2nc(-c3ccncc3)no2)cccn1Cc1c(F)cccc1Cl` the IC50 was > 25 µM (inactive). In the case of `O=C(Cn1c(=O)c2ccccc2c2ccccc21)Nc1ccc2c(c1)OCO2`, the IC50 is reported as > 25 µM (inactive). For `O=C(NC1CC1)c1ccc(OCC2CCCN(C(=O)c3ccccc3)C2)cc1` (configuration not stated), the IC50 was > 25 µM (inactive). `COc1ccc(OCC(=O)N(Cc2cccc3ccccc23)c2ccccn2)cc1` was tested, and the IC50 was > 25 µM (inactive). With `O=C1CC(c2ccc(F)cc2)CC2=C1C(c1cccc([N+](=O)[O-])c1)Nc1ccccc1N2` (configuration not stated) the IC50 was > 25 µM (inactive). With `COc1ccc(-c2noc(CN3CCCC3c3cnn(C)c3)n2)cc1` (configuration not stated) the IC50 was > 25 µM (inactive). In the case of `N#Cc1c(-c2ccc(Cl)cc2)ccn2nc(CCC(=O)O)nc12`, the IC50 is reported as > 25 µM (inactive). With `O=C(NCc1ccco1)c1ccc(Cn2c(SCc3ccccc3)nc3ccncc32)cc1` the IC50 was > 25 µM (inactive). `O=C(c1cccc2ncccc12)N1CCN(c2ccnc3cc(Cl)ccc23)CC1` was tested, and the IC50 was > 25 µM (inactive). With `CC(C)c1cc(C2CCCN2C(=O)Cc2ccc(Cl)cc2)no1` (configuration not stated) the IC50 was > 25 µM (inactive). `O=C(CCCn1c(=O)c2ccccc2n(CC(=O)NCc2ccccc2Cl)c1=O)NCc1ccc2c(c1)OCO2` was tested, and the IC50 was > 25 µM (inactive). `CSc1ccc([C@H]2[C@@H](C(=O)O)c3ccccc3C(=O)N2Cc2ccc(F)cc2)cc1` was tested, and the IC50 was > 25 µM (inactive). For `O=C(NCCc1nc2ccccc2n1Cc1ccccc1F)c1ccco1`, the IC50 was > 25 µM (inactive).

— PubChem BioAssay AID1645867 (Buhrlage Lab, Dana-Farber Cancer Institute and Novartis …, 2021)
